How the values were obtained:
Details in all cases: 10 μM CV-8814
Chemokine CCR1 = Chemokine CCR1 (Homo sapiens, UniProt P32246); format: binding
PPARγ = PPARγ (Homo sapiens, UniProt P37231); format: binding
Adrenergic β1 = Adrenergic β1 (Homo sapiens, UniProt P08588); format: binding
Angiotensin AT1 = Angiotensin AT1 (Homo sapiens, UniProt P30556); format: binding
[1] = target: Cholecystokinin CCK1 (CCKA) (Homo sapiens, UniProt P32238); format: binding
[2] = target: Transporter, Serotonin (5-Hydroxytryptamine) (SERT) (Homo sapiens, UniProt P31645); format: binding
Muscarinic M2 = Muscarinic M2 (Homo sapiens, UniProt P08172); format: binding
Adrenergic α1B = Adrenergic α1B (Rattus norvegicus, UniProt P15823); format: binding
[3] = target: Serotonin (5-Hydroxytryptamine) 5-HT2B (Homo sapiens, UniProt P41595); format: binding
Adrenergic α1D = Adrenergic α1D (Homo sapiens, UniProt P25100); format: binding
Opiate μ (OP3, MOP) = Opiate μ (OP3, MOP) (Homo sapiens, UniProt P35372); format: binding
Cyclooxygenase COX-1 = Cyclooxygenase COX-1 (Homo sapiens, UniProt P23219); format: biochemical
[4] = target: Platelet Activating Factor (PAF) (Homo sapiens, UniProt P25105); format: binding
Adrenergic α2A = Adrenergic α2A (Homo sapiens, UniProt P08913); format: binding
Progesterone PR-B = Progesterone PR-B (Homo sapiens, UniProt P06401); format: binding
Melanocortin MC1 = Melanocortin MC1 (Homo sapiens, UniProt Q01726); format: binding
Androgen (Testosterone) = Androgen (Testosterone) (Homo sapiens, UniProt P10275); format: binding
[5] = target: Serotonin (5-Hydroxytryptamine) 5-HT1A (Homo sapiens, UniProt P08908); format: binding
Dopamine D1 = Dopamine D1 (Homo sapiens, UniProt P21728); format: binding
Melanocortin MC4 = Melanocortin MC4 (Homo sapiens, UniProt P32245); format: binding
Endothelin ETA = Endothelin ETA (Homo sapiens, UniProt P25101); format: binding
Muscarinic M3 = Muscarinic M3 (Homo sapiens, UniProt P20309); format: binding
[6] = target: Serotonin (5-Hydroxytryptamine) 5-HT3 (Homo sapiens, UniProt P46098); format: binding
Monoamine Oxidase MAO-B = Monoamine Oxidase MAO-B (Homo sapiens, UniProt P27338); format: biochemical
Dopamine D2L = Dopamine D2L (Homo sapiens, UniProt P14416); format: binding
[7] = target: Serotonin (5-Hydroxytryptamine) 5-HT1B (Homo sapiens, UniProt P28222); format: binding
[8] = target: Protein Tyrosine Kinase, Insulin Receptor (Homo sapiens, UniProt P06213); format: biochemical
[9] = target: Glutamate, Metabotropic, mGlu5 (Homo sapiens, UniProt P41594); format: binding
Adrenergic β2 = Adrenergic β2 (Homo sapiens, UniProt P07550); format: binding
Cannabinoid CB2 = Cannabinoid CB2 (Homo sapiens, UniProt P34972); format: binding
[10] = target: Cholinesterase, Acetyl, ACES (Homo sapiens, UniProt P22303); format: biochemical
Adenosine A2A = Adenosine A2A (Homo sapiens, UniProt P29274); format: binding
Glutamate, NMDA, Glycine = Glutamate, NMDA, Glycine (Rattus norvegicus, UniProt P35439); format: binding
[11] = target: Serotonin (5-Hydroxytryptamine) 5-HT2C (Homo sapiens, UniProt P28335); format: binding
[12] = target: Transporter, Norepinephrine (NET) (Homo sapiens, UniProt P23975); format: binding
[13] = target: Peptidase, CTSG (Cathepsin G) (Homo sapiens, UniProt P08311); format: biochemical
[14] = target: Protein Tyrosine Kinase, LCK (Homo sapiens, UniProt P06239); format: biochemical
Chemokine CXCR2 (IL-8RB) = Chemokine CXCR2 (IL-8RB) (Homo sapiens, UniProt P25025); format: binding
Cannabinoid CB1 = Cannabinoid CB1 (Homo sapiens, UniProt P21554); format: binding

Measured: inhibition at 10 µM

Sequence of Transporter, Norepinephrine (NET) (P23975 whole entry): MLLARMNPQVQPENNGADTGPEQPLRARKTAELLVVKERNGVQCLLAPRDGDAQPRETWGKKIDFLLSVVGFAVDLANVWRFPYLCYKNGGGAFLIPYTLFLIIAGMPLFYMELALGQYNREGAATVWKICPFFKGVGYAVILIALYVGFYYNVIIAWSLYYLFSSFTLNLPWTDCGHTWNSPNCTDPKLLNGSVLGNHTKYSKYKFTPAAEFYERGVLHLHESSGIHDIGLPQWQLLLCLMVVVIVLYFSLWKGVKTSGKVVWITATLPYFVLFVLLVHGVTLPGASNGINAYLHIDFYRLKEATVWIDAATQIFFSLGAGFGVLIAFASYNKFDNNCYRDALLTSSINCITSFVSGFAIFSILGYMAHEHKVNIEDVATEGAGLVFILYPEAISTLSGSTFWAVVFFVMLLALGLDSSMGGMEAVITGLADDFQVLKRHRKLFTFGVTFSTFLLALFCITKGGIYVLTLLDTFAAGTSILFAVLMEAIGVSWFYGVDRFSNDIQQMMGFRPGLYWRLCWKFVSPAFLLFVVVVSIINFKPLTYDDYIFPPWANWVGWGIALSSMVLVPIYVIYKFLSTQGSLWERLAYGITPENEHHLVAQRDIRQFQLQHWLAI
Sequence of Cholinesterase, Acetyl, ACES (P22303 32-614): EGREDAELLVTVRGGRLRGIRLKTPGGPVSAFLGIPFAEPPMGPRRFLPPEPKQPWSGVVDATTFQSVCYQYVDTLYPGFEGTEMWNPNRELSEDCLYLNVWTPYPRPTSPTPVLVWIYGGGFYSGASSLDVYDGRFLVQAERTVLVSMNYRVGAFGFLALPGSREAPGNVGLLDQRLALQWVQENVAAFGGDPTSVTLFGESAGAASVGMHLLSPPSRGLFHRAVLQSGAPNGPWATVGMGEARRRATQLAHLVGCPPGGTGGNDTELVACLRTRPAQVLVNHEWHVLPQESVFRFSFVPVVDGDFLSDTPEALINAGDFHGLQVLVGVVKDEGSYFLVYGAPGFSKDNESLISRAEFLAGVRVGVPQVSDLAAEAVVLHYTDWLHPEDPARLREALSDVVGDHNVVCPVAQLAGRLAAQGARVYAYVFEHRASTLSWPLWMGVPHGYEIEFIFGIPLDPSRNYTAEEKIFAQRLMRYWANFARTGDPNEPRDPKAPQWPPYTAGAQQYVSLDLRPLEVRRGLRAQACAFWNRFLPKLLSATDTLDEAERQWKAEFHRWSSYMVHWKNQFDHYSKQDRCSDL
Sequence of Endothelin ETA (P25101 21-427): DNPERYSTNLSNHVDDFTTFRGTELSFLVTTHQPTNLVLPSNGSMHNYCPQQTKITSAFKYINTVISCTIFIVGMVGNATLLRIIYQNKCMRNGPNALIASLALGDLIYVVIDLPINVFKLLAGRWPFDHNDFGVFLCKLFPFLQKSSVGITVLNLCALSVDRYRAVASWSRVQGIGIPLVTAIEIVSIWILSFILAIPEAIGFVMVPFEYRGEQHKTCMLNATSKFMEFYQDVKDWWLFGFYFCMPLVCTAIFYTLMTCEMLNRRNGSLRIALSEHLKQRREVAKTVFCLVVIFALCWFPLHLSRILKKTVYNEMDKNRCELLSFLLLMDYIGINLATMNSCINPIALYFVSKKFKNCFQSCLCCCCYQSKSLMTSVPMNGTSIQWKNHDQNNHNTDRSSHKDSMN
Sequence of Chemokine CCR1 (P32246 whole entry): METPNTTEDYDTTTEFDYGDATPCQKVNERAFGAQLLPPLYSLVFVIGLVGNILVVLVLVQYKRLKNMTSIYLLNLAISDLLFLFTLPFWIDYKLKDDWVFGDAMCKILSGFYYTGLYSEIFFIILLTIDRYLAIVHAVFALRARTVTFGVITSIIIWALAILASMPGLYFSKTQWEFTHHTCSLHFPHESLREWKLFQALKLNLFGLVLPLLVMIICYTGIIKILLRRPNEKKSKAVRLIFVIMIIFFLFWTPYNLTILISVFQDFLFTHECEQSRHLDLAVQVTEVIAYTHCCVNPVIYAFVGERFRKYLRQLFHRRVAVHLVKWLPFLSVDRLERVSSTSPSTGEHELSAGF
Sequence of Dopamine D2L (P14416 whole entry): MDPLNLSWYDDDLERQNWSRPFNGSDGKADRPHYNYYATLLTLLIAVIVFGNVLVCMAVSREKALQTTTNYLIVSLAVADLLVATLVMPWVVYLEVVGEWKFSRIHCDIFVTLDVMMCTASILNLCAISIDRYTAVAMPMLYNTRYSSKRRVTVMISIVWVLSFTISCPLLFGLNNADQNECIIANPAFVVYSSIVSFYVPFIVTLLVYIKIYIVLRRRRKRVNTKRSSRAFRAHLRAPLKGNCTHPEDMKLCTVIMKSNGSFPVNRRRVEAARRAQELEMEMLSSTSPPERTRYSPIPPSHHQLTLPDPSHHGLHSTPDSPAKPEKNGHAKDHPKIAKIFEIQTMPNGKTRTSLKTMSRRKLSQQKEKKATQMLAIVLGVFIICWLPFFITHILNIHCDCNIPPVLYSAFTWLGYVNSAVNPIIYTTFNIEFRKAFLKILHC
Sequence of Cannabinoid CB2 (P34972 whole entry): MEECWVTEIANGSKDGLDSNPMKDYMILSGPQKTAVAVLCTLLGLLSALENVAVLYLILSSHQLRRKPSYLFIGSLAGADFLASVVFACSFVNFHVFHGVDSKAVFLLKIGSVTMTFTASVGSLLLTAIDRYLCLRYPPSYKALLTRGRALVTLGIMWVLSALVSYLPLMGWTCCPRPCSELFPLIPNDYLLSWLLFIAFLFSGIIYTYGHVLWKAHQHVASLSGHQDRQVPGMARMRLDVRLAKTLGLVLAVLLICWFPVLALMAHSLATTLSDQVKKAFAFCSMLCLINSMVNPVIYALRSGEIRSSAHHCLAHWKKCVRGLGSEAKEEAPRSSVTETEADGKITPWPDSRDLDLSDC
Sequence of Dopamine D1 (P21728 whole entry): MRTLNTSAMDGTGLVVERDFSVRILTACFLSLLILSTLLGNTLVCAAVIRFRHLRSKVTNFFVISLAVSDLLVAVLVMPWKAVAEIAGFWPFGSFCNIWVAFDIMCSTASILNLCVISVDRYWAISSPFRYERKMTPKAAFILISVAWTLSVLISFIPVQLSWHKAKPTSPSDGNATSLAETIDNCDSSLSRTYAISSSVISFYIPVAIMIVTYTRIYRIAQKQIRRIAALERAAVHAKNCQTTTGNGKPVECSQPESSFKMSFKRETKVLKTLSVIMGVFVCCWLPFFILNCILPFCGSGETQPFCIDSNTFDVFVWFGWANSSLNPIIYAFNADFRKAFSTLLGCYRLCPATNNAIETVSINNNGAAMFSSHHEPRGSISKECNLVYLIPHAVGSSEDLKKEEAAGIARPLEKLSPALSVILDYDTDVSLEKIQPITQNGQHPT
Sequence of Adrenergic α1D (P25100 whole entry): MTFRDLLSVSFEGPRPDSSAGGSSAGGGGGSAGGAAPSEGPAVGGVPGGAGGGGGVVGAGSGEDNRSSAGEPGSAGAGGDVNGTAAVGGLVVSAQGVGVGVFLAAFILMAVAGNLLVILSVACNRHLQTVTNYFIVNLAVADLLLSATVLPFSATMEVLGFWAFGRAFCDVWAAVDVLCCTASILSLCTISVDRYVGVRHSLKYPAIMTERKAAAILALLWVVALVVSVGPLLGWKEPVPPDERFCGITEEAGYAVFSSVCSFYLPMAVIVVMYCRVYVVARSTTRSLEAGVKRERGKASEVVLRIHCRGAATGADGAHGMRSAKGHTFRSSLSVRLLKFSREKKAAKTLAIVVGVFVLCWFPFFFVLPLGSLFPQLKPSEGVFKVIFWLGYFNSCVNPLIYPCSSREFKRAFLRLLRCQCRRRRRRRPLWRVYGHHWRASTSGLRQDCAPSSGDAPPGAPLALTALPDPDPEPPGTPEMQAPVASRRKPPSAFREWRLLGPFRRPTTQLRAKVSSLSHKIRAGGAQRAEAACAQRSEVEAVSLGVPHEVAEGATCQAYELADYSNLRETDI
Sequence of Melanocortin MC4 (P32245 whole entry): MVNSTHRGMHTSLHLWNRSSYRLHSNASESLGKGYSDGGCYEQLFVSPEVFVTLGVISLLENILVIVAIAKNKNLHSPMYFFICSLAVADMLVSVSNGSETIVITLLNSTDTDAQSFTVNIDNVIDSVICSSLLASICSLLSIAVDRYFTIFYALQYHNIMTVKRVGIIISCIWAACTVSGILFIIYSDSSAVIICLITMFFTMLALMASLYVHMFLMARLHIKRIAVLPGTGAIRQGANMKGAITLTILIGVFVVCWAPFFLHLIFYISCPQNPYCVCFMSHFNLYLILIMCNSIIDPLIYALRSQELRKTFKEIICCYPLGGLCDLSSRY
Sequence of Peptidase, CTSG (Cathepsin G) (P08311 21-244): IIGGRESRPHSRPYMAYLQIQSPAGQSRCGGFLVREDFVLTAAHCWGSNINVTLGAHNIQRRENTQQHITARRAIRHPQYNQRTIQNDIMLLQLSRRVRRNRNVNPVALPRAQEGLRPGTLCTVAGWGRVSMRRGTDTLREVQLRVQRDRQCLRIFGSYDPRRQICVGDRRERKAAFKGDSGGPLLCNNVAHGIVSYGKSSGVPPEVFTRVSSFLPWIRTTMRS
Sequence of Cyclooxygenase COX-1 (P23219 24-599): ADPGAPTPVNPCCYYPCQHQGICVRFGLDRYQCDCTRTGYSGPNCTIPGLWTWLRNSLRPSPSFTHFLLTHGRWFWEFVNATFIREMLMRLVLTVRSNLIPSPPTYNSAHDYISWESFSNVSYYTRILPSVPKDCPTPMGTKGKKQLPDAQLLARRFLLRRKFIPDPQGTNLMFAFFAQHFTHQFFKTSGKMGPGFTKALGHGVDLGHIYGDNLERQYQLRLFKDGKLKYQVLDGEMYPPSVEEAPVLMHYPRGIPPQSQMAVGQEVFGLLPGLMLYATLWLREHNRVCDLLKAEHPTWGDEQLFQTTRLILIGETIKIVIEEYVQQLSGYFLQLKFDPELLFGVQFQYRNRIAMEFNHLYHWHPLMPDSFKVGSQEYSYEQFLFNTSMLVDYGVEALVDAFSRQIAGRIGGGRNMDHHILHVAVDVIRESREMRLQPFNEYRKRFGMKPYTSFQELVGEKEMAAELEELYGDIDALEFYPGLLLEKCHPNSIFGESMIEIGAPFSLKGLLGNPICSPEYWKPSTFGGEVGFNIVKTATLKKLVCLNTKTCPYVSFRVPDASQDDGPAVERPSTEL

COc1ccc(CN2CCN(CCO)CC2)c(OC)c1OC [CV-8814, 2-(4-(2,3,4-trimethoxybenzyl)piperazin-1-yl)ethan-1-01]
< 50%: all assays above

— US20220168431A1, “METHODS OF TREATING CANCER USING TRIMETAZIDINE-BASED COMPOUNDS” (IMBRIA PHARMACEUTICALS, INC., priority 2019, published 2022)
